Values belong to the substance of their own block, whether it stands above or below them. Where no end group is shown, it is not given here.
Tests used:
[1] = system: purified bovine brain CaM; test: GST-fusion protein pull-down with purified bovine brain CaM; assay type: binding; details: for interaction with purified CaM (pull-down, in words) / relative binding efficiency for CaM: 50 pmol GST-fusion protein; for interaction with purified CaM (pull-down, in words): 50 pmol purified bovine CaM, 100 mM Tris-HCl pH 7.5, Ca2+ dependent (0.1 mM CaCl2 vs 1 mM EGTA), repeated five times; for relative binding efficiency for CaM: purified bovine brain CaM, 100 mM Tris-HCl pH 7.5, 0.1 mM CaCl2, immunoblot density ratio, 5 independent experiments; for relative binding efficiency for CaM versus wild type (in words): GST pull-down with fixed concentrations, data not shown
Protocol: (§1) GST-fusion proteins were expressed in E. coli BL21 strain cells, and purified by affinity chromatography using immobilized glutathione sepharose 4B beads. Proteins were eluted by reduced glutathione in 50 mM Tris-HCl buffer (pH 8.0), and then concentrated with Centricon filters with 3 kDa MW cut-off. The eluted proteins were either used immediately or stored at −80°C for future use. For GST-fusion protein pull-down assays, fusion proteins were incubated with either cell lysates or purified protein(s) at 4°C for 3 hours, following which glutathione-sepharose 4B beads were added and incubation continued at 4°C for 1 hour. The beads were then recovered by brief centrifugation, followed by 4 washes with the corresponding incubation buffer. The fusion proteins and the proteins to which they were bound were then separated by SDS-PAGE, and identified by staining with Coomassie blue or by immunoblot.
Figure 1 Interactions of the i3 loop and carboxyl tail of the AT1A receptor with CaM. A, Construction of GST-fusion proteins. Upper panel illustrates a schematic structure of the AT1A receptor and constructs of GST-fusion proteins of the i3 loop and carboxyl tail of the receptor. The numbers represent positions of amino acids in the receptor. The GST-fusion proteins were constructed, expressed in E. coli, purified by using gluthathione-sepharose 4B beads, separated by SDS-PAGE, and stained by Coomassie blue (lower panel). B. Interactions of the i3 loop or carboxyl tail of AT1A receptor with CaM in rat brain lysates (upper panel) and with purified bovine brain CaM (lower panel). 50 pmol of GST-fusion proteins were incubated with 500 µg of rat brain lysates in 250 µl of buffer containing 20 mM Tris-HCl, 70 mM NaCl, pH 7.5 with 1 mM EGTA or 0.1 mM CaCl2. Interacting protein complexes were pulled down by gluthathione-sepharose 4B beads, and visualized by immunoblot with a specific anti-CaM antibody. The same methods were applied to interactions with pure bovine CaM (50 pmol), except that the buffer contained 100 mM Tris-HCl (pH 7.5). These experiments were repeated five times with similar results.
Figure 3 CaM binding sites in the i3 loop and carboxyl tail of the AT1A receptor. A, Schematic representation of constructs of GST-fusion proteins. Four GST-fusion proteins containing truncated peptides in the i3 loop and carboxyl tail of the receptor were constructed, including GST-N-terminus of the i3 loop (GST-ATi3N), GST-C-terminus of the i3 loop (GST-ATi3C), GST-N-terminus of carboxyl tail (GST-ATctN) and GST-C-terminus of carboxyl tail (GST-ATctC). The numbers under the first or the last residues represent amino acid positions in the receptor. B, Interaction of GST-fusion proteins with CaM. The GST-fusion proteins (50 pmol) were incubated with purified bovine CaM (50 pmol) in 250 µl of buffer containing 100 mM Tris-HCl (pH 7.5) with 0.1 mM CaCl2. Proteins were pulled down by gluthathione-sepharose 4B beads, following which immunoblots were probed with a specific anti-CaM antibody. These experiments were repeated five times with similar results.
Figure 5 Effect of point mutations in ATi3N or ATctN on their interactions with CaM. A. Modeled structures of CaM-ATi3(214–231) and CaM-ATct(302–317). The complexes of CaM and CaM binding motif in the i3 loop ATi3(214–231) or the carboxyl terminal tail ATct(302–317) of the receptor were modeled as described in Experimental Procedures. The target peptides are colored in red. […] Calcium atoms are shown as orange spheres. The N- and C- termini of CaM are also labeled. Helices and sheets in CaM are colored in green and yellow, respectively. B. Effect of point mutations at ATi3N or ATctN on their interaction with CaM. […]

[2] = system: AT1A receptor-CaM interaction; test: BRET between AT1A receptor-eYFP and RLuc-CaM / CaM-RLuc in HEK293 cells; assay type: cell-based, Human Embryonic Kidney 293 (HEK293) cells; details: 100 nM Ang II at 2, 4 and 6 minutes, compared with no Ang II
Protocol: We first stably transfected HEK293 cells with the AT1A receptor-eYFP vector by using lipofectamine 2000 solution according to the vendor’s (Invitrogen) instructions. […] The co-transfectants were detached with PBS buffer containing 1 mM EDTA, and distributed into 96 well plates at 10^5 cells/well (OptiPlate 96, Greiner Bio-One. Longwood, FL). Fluorescence measurements were acquired using a Victor2 multilabel plate reader (Perkin Elmer Life Sciences, Shelton, CT). […] The emission of light from YFP was measured both before and after stimulation with 100 nM of Ang II.
48 hours later, the cotransfectants were washed with saline pre-warmed at 37°C and calibrated in saline in a 37°C incubator for 30 minutes. […] Control co-transfectants were treated with equal amounts of saline (vehicle).

[3] = system: G protein βγ subunits; test: GST-fusion protein pull-down of G protein βγ subunits, with or without CaM; assay type: binding, bovine; details: 2 pmol GST-fusion protein, 2 pmol Gβγ, CaM pre-incubated 30 minutes, 20 mM Tris-HCl, 70 mM NaCl, 0.1 mM CaCl2, pH 7.5; 4 or 5 experiments
Protocol: as §1
Figure 7 Effect of CaM on G protein βγ subunit interaction with wild ATi3 or ATct. A. Interaction of G protein βγ subunits and ATi3 or ATct. 50 pmol of GST-ATi3(213–242) or GST-ATct(297–359) were incubated with different amounts of G protein Gβγ subunits in a buffer containing 20 mM Tris-HCl and 70 mM NaCl (pH 7.5). Interactions were assessed by GST-fusion protein pull-down assay, and blots were probed with a specific antibody against Gβ subunits (upper panel). 1 pmol of Gβγ subunit was interacted with different amounts of GST-ATi3(213–242) and GST-ATct(297–359). Interaction was assessed by immunoblot against Gβ subunits (lower panel). B. CaM inhibits the interaction between G protein Gβγ subunits and ATi3 or ATct. 2 pmol of GST-ATi3(213–242) or GST-ATct(297–359) were incubated with different concentrations of pure bovine brain CaM for 30 minutes in a buffer (20 mM Tris-HCl and 70 mM NaCl with 0.1 mM CaCl2, pH 7.5) following which 2 pmol of Gβγ subunits were added and incubated for 1 hour. GST-fusion proteins and their interacting proteins were pulled down by gluthathione-sepharose 4B beads, and subjected to immunoblot. Blots were probed with a specific antibody against Gβ subunits. The summary graph represents means ± S.E. from four independent experiments. C. Effects of CaM on the interactions between G protein βγ subunits and mutated ATi3 and ATct. The method is same as the described in the Figure 7B, except that we used mutated GST-fusion proteins, GST-ATi3(213–242)W219A, ATct(297–359)F309A, and ATct(297–359)F313A. The summary graph represents mean ± S.E. from 4 or 5 independent experiments.

[4] = system: CaM in rat brain lysates; test: GST-fusion protein pull-down from rat brain lysates; assay type: binding; details: 50 pmol GST-fusion protein, 500 µg rat brain lysates, 20 mM Tris-HCl, 70 mM NaCl, pH 7.5; Ca2+ dependent; repeated five times
Protocol: as §1
Figure 1 Interactions of the i3 loop and carboxyl tail of the AT1A receptor with CaM. A, Construction of GST-fusion proteins. Upper panel illustrates a schematic structure of the AT1A receptor and constructs of GST-fusion proteins of the i3 loop and carboxyl tail of the receptor. The numbers represent positions of amino acids in the receptor. […]

[5] = molecular target: T1, CaM purified from bovine brain (dansyl-CaM) (Bos taurus, UniProt P62157); test: Dansyl-CaM fluorescence emission spectrum shift; assay type: binding; details: dansyl-CaM 106 nM, 500 nM peptide + 0.1 mM calcium, 1 hour room temperature; shifted from 521 nm (EGTA); three experiments
T1 construct: CaM and G protein βγ subunits purified from bovine brain; purchased Calbiochem (La Jolla, CA); host or cells: bovine brain (tissue-purified)
Protocol: Dansyl-CaM was synthesized according to a standard method, [46], [47], [48]. 500 µl of CaM purified from bovine brain (2 mg/ml in a buffer containing 20 mM NH4HCO3, pH 7.4 and 1 mM CaCl2) was mixed with 1 µl of dansyl chloride (100 mg/ml in acetone) at 4°C C for 1 hour with agitation. The mixture was then applied to a Centricon 4 concentrator with 10 kDa MW cut-off to remove the unincorporated dye. Efficiencies of dansylation (0.18–0.34 mol of dansyl moiety per mol of CaM) were calculated by measurement of absorption at 320 nm using a molar extinction coefficient of 3400 M-1cm-1. For conformational studies of dansyl-CaM, fluorescence was monitored at room temperature with a SLMAminco model 8000 series 2 spectrometer (Spectronic Instruments, Rochester, NY) at an excitation wavelength of 340 nm, and emission wavelengths from 425 to 600 nm.
Figure 4 CaM binding motifs in the i3 loop and carboxyl terminal tail of the AT1A receptor. A, Alignment of CaM binding motifs. […] Fluorescence emission spectra of dansyl-CaM (106 nM) at an emission wavelength of 425–600 nm were measured in the presence of 10 mM EGTA, 0.1 mM calcium, 500 nM ATi3 (214–231) +0.1 mM calcium, and 500 nM ATct (302–317) +0.1 mM calcium. […] Spectra were corrected for background buffer fluorescence. […]

Substance: ATctC (325–359): GST-C-terminus of carboxyl tail, GST-KSHSSLSTKMSTLSYRPSDNMSSSAKKPASCFEVE ({GST}-KSHSSLSTKMSTLSYRPSDNMSSSAKKPASCFEVE)
interaction with purified CaM (pull-down, in words) [1]: no interactions with CaM

Substance: ATctN (297–324): GST-N-terminus of carboxyl tail, GST-LNPLFYGFLGKKFKKYFLQLLKYIPPKA ({GST}-LNPLFYGFLGKKFKKYFLQLLKYIPPKA)
interaction with purified CaM (pull-down, in words) [1]: interact with purified CaM

Substance: ATi3C (235–242): GST-C-terminus of the i3 loop, amino acids 235–242, peptide NDDIFRIT
interaction with purified CaM (pull-down, in words) [1]: no interactions with CaM

Substance: ATi3N (213–234): GST-N-terminus of the i3 loop, GST-TSYTLIWKALKKAYEIQKNKPR ({GST}-TSYTLIWKALKKAYEIQKNKPR)
interaction with purified CaM (pull-down, in words) [1]: interact with purified CaM

Substance: Angiotensin II (DRVYIHPF; Angiotensin-2; UniProt P01019 25-32, looked up) [Ang II, AT1A receptor agonist]
effect on magnitude of the BRET ratio of the co-transfectants [2]: did not alter

relative binding efficiency for CaM [1]: 29 % of wild type
Substance: GST-ATctN(297–324)F309A: F309A mutant of GST-ATctN(297–324) ({GST}-LNPLFYGFLGKKAKKYFLQLLKYIPPKA)

relative binding efficiency for CaM [1]: 22 % of wild type
Substance: GST-ATctN(297–324)F313A: F313A mutant of GST-ATctN(297–324) ({GST}-LNPLFYGFLGKKFKKYALQLLKYIPPKA)

Substance: GST-ATctN(297–324)Y312A: Y312A mutant of GST-ATctN(297–324) ({GST}-LNPLFYGFLGKKFKKAFLQLLKYIPPKA)
relative binding efficiency for CaM versus wild type (in words) [1]: did not have reduced binding efficiencies

Gβγ binding to GST-fusion protein in the presence of 2 pmol of CaM [3]: 95% | Gβγ binding to GST-fusion protein in the presence of 10 pmol of CaM [3]: 94%
Substance: GST-ATi3(W219A): W219A mutant of GST-ATi3(213–242) ({GST}-TSYTLIAKALKKAYEIQKNKPRNDDIFRII)

Substance: GST-ATi3N(213–234)L217A: L217A mutant of GST-ATi3N(213–234) ({GST}-TSYTAIWKALKKAYEIQKNKPR)
relative binding efficiency for CaM versus wild type (in words) [1]: did not have reduced binding efficiencies

Substance: GST-ATi3N(213–234)Y215A: Y215A mutant of GST-ATi3N(213–234) ({GST}-TSATLIWKALKKAYEIQKNKPR)
relative binding efficiency for CaM versus wild type (in words) [1]: did not have reduced binding efficiencies

Gβγ binding to GST-fusion protein in the presence of 2 pmol of CaM [3]: 77% | Gβγ binding to GST-fusion protein in the presence of 10 pmol of CaM [3]: 60%
Substance: GSTATi3(213–242): GST fused to the i3 loop of AT1A receptor, GST-TSYTLIWKALKKAYEIQKNKPRNDDIFRII ({GST}-TSYTLIWKALKKAYEIQKNKPRNDDIFRII)
interaction with purified CaM (pull-down, in words) [1]: associated | association with CaM from rat brain lysates (pull-down, in words) [4]: associated

relative binding efficiency for CaM [1]: 32 % of wild type
Substance: GSTATi3N(213–234)W219A: W219A mutant of GST-ATi3N(213–234) ({GST}-TSYTLIAKALKKAYEIQKNKPR)

λmax of dansyl-CaM fluorescence emission spectrum in presence of peptide [5]: 486 nm
Substance: SYTLIWKALKKAYEIQKN [ATi3(214–231)]
